Results on 2 molecules are retold here after PMC6272684, “Synthesis, Antiproliferative and Antifungal Activities of 1,2,3-Triazole-Substituted Carnosic Acid and Carnosol Derivatives” (Molecules, 2015).

One test concerns C. neoformans ATCC 32264. Description: Antifungal broth microdilution (CLSI M27-A3), growth inhibition. The class given is cell-based, Cryptococcus neoformans. The protocol: (§1) The antifungal properties of compounds 1–24 against two clinical important fungal species, C. albicans ATCC 10231 and C. neoformans ATCC 32264 were investigated. Results were expressed as the percentages of inhibition of each fungus in the range 250–3.9 μg∙mL^−1 by using the standardized microbroth dilution method M-27A3 of Clinical and Laboratory Standards Institute which assures reliable and reproducible results.
(§2) For the antifungal evaluation, standardized strains from the American Type Culture Collection (ATCC), Rockville, MD, USA, were used. The microorganisms included yeasts (Candida albicans ATCC 10231 and Cryptococcus neoformans ATCC 32264). Strains were grown on Sabouraud-chloramphenicol agar slants for 48 h at 30 °C, maintained on slopes of Sabouraud-dextrose agar (SDA, Oxoid), and subcultured every 15 days to prevent pleomorphic transformations. Inocula of cell or spore suspensions were obtained according to reported procedures and adjusted to 1–5 × 10^3 cells/spores with colony forming units (CFU)/mL [29].
(§3) Broth microdilution techniques were performed in 96-well microplates according to the Clinical and Laboratory Standards Institute Reference Method for Broth Dilution Antifungal Susceptibility Testing of Yeasts, Approved Standard M27-A3 [29]. For the assay, compound test wells (CTWs) were prepared with stock solutions of each compound in DMSO (maximum concentration ≤1%), diluted with RPMI-1640, to final concentrations of 250–3.9 μg∙mL^−1. An inoculum suspension (100 μL) was added to each well (final volume in the well = 200 μL). A growth control well (GCW) (containing medium, inoculum, and the same amount of DMSO used in a CTW, but compound-free) and a sterility control well (SCW) (sample, medium, and sterile water instead of inoculum) were included for each fungus tested. Microtiter trays were incubated in a moist, dark chamber at 30 °C for 48 h for both yeasts. Microplates were read in a VERSA Max microplate reader (Molecular Devices, Sunnyvale, CA, USA). Amphotericin B (Sigma-Aldrich) was used as positive control. Tests were performed in triplicate. Reduction of growth for each compound concentration was calculated as follows: % of inhibition = 100 − (OD 405 CTW − OD 405 SCW)/(OD 405 GCW − OD 405 SCW). The means ± SEM were the results of triplicate tests. Three endpoints were defined from the assay explained above and the dose-response curves. Minimum Inhibitory concentration (MIC) resulting in total fungal growth inhibition was named MIC100 while MIC50 was defined as the minimum concentration that inhibits 50% of the fungal growth.

The next test deals with C. albicans ATCC 10231. The description is as above. The class given is cell-based, Candida albicans. The protocol: as §1, §2, §3

The structures appear in SMILES notation. Values after ≈ are worked out from the molar mass of the structure shown. A value given as a limit tells only on which side of the number the result lay.

For orientation: inhibition means the drop in the measured response relative to a control, in per cent. For `C[C@@H]1[C@H](O)[C@@H](C)/C=C/C=C/C=C/C=C/C=C/C=C/C=C/[C@H](O[C@@H]2O[C@H](C)[C@@H](O)[C@H](N)[C@@H]2O)C[C@@H]2O[C@](O)(C[C@@H](O)C[C@@H](O)[C@H](O)CC[C@@H](O)C[C@@H](O)CC(=O)O[C@H]1C)C[C@H](O)[C@H]2C(=O)O` [Amph B, amphotericin B, reference compound], the inhibition at 3.9 µg/mL is 100% in the test on C. neoformans ATCC 32264 (Cryptococcus neoformans, ATCC32264, 3.9 μg∙mL^−1, 48 h, read-out: Inhibition percentage against C. neoformans ATCC 32264) and 100% in the test with C. albicans ATCC 10231 (Candida albicans, ATCC10231, 3.9 μg∙mL^−1, 48 h, read-out: Inhibition percentage against C. albicans ATCC 10231). Also, the inhibition at 7.8 µg/mL turned out to be 100% with C. neoformans ATCC 32264 (Cryptococcus neoformans, ATCC32264, 7.8 μg∙mL^−1, 48 h, read-out: Inhibition percentage against C. neoformans ATCC 32264) and 100% in the test with C. albicans ATCC 10231 (Candida albicans, ATCC10231, 7.8 μg∙mL^−1, 48 h, read-out: Inhibition percentage against C. albicans ATCC 10231). In addition, the inhibition at 15.6 µg/mL with C. neoformans ATCC 32264 (Cryptococcus neoformans, ATCC32264, 15.6 μg∙mL^−1, 48 h, read-out: Inhibition percentage against C. neoformans ATCC 32264) is 100%; in the test with C. albicans ATCC 10231 (Candida albicans, ATCC10231, 15.6 μg∙mL^−1, 48 h, read-out: Inhibition percentage against C. albicans ATCC 10231) it was 100%. Moreover, the inhibition at 31.2 µg/mL in the test on C. neoformans ATCC 32264 (Cryptococcus neoformans, ATCC32264, 31.2 μg∙mL^−1, 48 h, read-out: Inhibition percentage against C. neoformans ATCC 32264) was 100%. The inhibition at 62.5 µg/mL with C. neoformans ATCC 32264 (Cryptococcus neoformans, ATCC32264, 62.5 μg∙mL^−1, 48 h, read-out: Inhibition percentage against C. neoformans ATCC 32264) was found to be 100%; in the test on C. albicans ATCC 10231 (Candida albicans, ATCC10231, 62.5 μg∙mL^−1, 48 h, read-out: Inhibition percentage against C. albicans ATCC 10231), 100%. The inhibition at 125 µg/mL in the test on C. neoformans ATCC 32264 (Cryptococcus neoformans, ATCC32264, 125 μg∙mL^−1, 48 h, read-out: Inhibition percentage against C. neoformans ATCC 32264) came to 100%; in the test on C. albicans ATCC 10231 (Candida albicans, ATCC10231, 125 μg∙mL^−1, 48 h, read-out: Inhibition percentage against C. albicans ATCC 10231), 100%. The inhibition at 250 µg/mL with C. neoformans ATCC 32264 (Cryptococcus neoformans, ATCC32264, 250 μg∙mL^−1, 48 h, read-out: Inhibition percentage against C. neoformans ATCC 32264) amounted to 100%; with C. albicans ATCC 10231 (Candida albicans, ATCC10231, 250 μg∙mL^−1, 48 h, read-out: Inhibition percentage against C. albicans ATCC 10231) it was 100%. The MIC50 in the test with C. neoformans ATCC 32264 (Cryptococcus neoformans, ATCC32264, C. neoformans ATCC 32264, read-out: MIC50 (minimum concentration to inhibit 50% of fungal growth), C. neoformans) is 0.5 µg/mL (≈ 0.541 µM); in the test with C. albicans ATCC 10231 (Candida albicans, ATCC10231, C. albicans ATCC 10231, read-out: MIC50 (minimum concentration to inhibit 50% of fungal growth), C. albicans), 0.25 µg/mL (≈ 0.271 µM).
With `COC(=O)C12CCCC(C)(C)C1CCc1cc(C(C)C)c(OC(=O)CCc3cn(CSc4ccccc4)nn3)c(OC(=O)CCc3cn(CSc4ccccc4)nn3)c12` (stereo not shown) [Compound 9, Methyl(11,12-O-(3-(((1-phenylthio)methyl)-1H-1,2,3-triazol-4-yl)-propanoyloxy)-abieta-8,11,13-triene)-20-oate], the “Inhibition percentage against C. neoformans ATCC 32264” value with C. neoformans ATCC 32264 (3.9 μg∙mL^−1, 48 h) came out at 0.0%; in the test with C. neoformans ATCC 32264 (7.8 μg∙mL^−1, 48 h) it was 5.1 ± 0.7%; with C. neoformans ATCC 32264 (15.6 μg∙mL^−1, 48 h), 7.3 ± 0.4%; in the test with C. neoformans ATCC 32264 (31.2 μg∙mL^−1, 48 h), 13.7 ± 1.5%; with C. neoformans ATCC 32264 (62.5 μg∙mL^−1, 48 h) it was 23.4 ± 1.3%; in the test on C. neoformans ATCC 32264 (125 μg∙mL^−1, 48 h), 53.6 ± 2.6%. In addition, in the test on C. neoformans ATCC 32264 (250 μg∙mL^−1, 48 h), the “Inhibition percentage against C. neoformans ATCC 32264” value was 62.4 ± 3.8%. In addition, the “MIC50 (minimum concentration to inhibit 50% of fungal growth), C. neoformans” value in the test with C. neoformans ATCC 32264 (C. neoformans ATCC 32264) is 125 µg/mL. The “Inhibition percentage against C. albicans ATCC 10231” value in the test on C. albicans ATCC 10231 (3.9 μg∙mL^−1, 48 h) is reported as 0.0%; with C. albicans ATCC 10231 (7.8 μg∙mL^−1, 48 h), 0.0%; with C. albicans ATCC 10231 (15.6 μg∙mL^−1, 48 h) it was 3.5 ± 0.3%; with C. albicans ATCC 10231 (62.5 μg∙mL^−1, 48 h), 9.4 ± 0.7%; in the test on C. albicans ATCC 10231 (125 μg∙mL^−1, 48 h), 19.2 ± 0.1%; with C. albicans ATCC 10231 (250 μg∙mL^−1, 48 h), 15.9 ± 1.2%. Moreover, the “Inhibition percentage against C. albicans ATCC 10231” value in the test on C. albicans ATCC 10231 (31. μg∙mL^−1, 48 h) was 4.7 ± 0.1%. Besides, the “MIC50 (minimum concentration to inhibit 50% of fungal growth), C. albicans” value with C. albicans ATCC 10231 (C. albicans ATCC 10231) was greater than 250 µg/mL.
